Patent US20140171417A1, “TRICYCLIC COMPOUNDS” (NOVARTIS AG, priority 2012, published 2014)

Target: T1, CFTR (Homo sapiens, UniProt P13569)
T1 construct: expressed in transfected cells
Assay: IonWorks Quattro assay (CFTR Inhibitor Assay), whole-cell planar patch clamp
Type: cell-based
Conditions: inward current (−100 mV); CHO cells stably expressing WT-CFTR; CFTR activated by 10 μM forskolin; test compound incubated 10 min
Source text: CFTR activity can be quantified by electrophysiology methods, using the whole-cell configuration of the patch clamp technique (Hamill O, Marty A, Neher E, Sakmann B and Sigworth F. ‘Improved patch-clamp techniques for high resolution current recording from cells and cell-free membrane patches.’ Pflugers Archive 1981 391: 85-100). This assay directly measures the currents associated with chloride flow through CFTR channels whilst either maintaining or adjusting the transmembrane voltage. This assay can use either single glass micropipettes or parallel planar arrays to measure CFTR activity from native or recombinant cell systems. Currents measured using parallel planar arrays can be quantified using an appropriately equipped instrument such as the IonWorks Quattro (Molecular Devices Corporation, Sunnyvale, Calif.). The Quattro system can measure CFTR currents from either a single cell per recording well (HT configuration) or alternatively from a population of 64 cells per well (Population Patch Clamp PPC) (Finkel A, Wittel A, Yang N, Handran S, Hughes J, Costantin J. ‘Population patch clamp improves data consistency and success rates in the measurement of ionic currents.’ J Biomol Screen. 2006 August; 11 (5):488-96).
Chinese hamster ovary (CHO) cells stably expressing WT-CFTR channels were used for the IonWorks Quattro experiments. Cells were maintained at 37° C. in 5% v/v CO2 at 100% humidity in MEM alpha medium supplemented with 10% (v/v) FCS, 100 U/mL Penicillin/Streptomycin, and 100 μg/L methotrexate. For experiments, cells were grown in 225 cm^2 tissue culture flasks until almost confluent. Cells were removed from the flask using trypsin-EDTA and resuspended in extracellular recording solution for immediate experimentation.
Cells, at a density of 1.5-2 million per mL, were placed on the Quattro system, added to the planar patch plate and seals allowed to establish for 5-10 mins. After assessing seal resistances (typically >50 MΩ), whole-cell access was obtained by perforation with 100 μg/mL amphotericin B. Baseline currents were measured by a pre-compound scan obtained by application of a voltage ramp from −100 to +100 mV. CFTR was activated by the addition of 10 μM forskolin to each of the 384 wells of the patch plate. After 5 min incubation the post-compound 1 currents were measured, again by application of a voltage ramp from −100 to +100 mV. Test compounds, diluted from 10 mM stocks in DMSO in extracellular solution were then added to the patch plate and were incubated for a further 10 min. The post-compound 2 currents were measured by the application of the same voltage ramp from −100 to +100 mV. The inhibition of CFTR was determined from the difference in current between the forskolin addition (post-compound 1) and the test compound (post-compound 2). This was determined at both −100 mV and +100 mV which represents the inward and outward current respectively.
Extracellular solution (ECS): 145 mM NaCl, 4 mM CsCl, 5 mM D-glucose, 10 mM TES, 1 mM CaCl2, 1 mM MgCl2, pH 7.4 NaOH
Intracellular solution (ICS): 113 mM L-Aspartic acid, 113 mM CsOH, 27 mM CsCl, 1 mM NaCl, 1 mM MgCl2, 1 mM EGTA, 10 mM TES. pH 7.2 with CsOH. Filter sterilized before use.

T1 sequence (P13569 whole entry): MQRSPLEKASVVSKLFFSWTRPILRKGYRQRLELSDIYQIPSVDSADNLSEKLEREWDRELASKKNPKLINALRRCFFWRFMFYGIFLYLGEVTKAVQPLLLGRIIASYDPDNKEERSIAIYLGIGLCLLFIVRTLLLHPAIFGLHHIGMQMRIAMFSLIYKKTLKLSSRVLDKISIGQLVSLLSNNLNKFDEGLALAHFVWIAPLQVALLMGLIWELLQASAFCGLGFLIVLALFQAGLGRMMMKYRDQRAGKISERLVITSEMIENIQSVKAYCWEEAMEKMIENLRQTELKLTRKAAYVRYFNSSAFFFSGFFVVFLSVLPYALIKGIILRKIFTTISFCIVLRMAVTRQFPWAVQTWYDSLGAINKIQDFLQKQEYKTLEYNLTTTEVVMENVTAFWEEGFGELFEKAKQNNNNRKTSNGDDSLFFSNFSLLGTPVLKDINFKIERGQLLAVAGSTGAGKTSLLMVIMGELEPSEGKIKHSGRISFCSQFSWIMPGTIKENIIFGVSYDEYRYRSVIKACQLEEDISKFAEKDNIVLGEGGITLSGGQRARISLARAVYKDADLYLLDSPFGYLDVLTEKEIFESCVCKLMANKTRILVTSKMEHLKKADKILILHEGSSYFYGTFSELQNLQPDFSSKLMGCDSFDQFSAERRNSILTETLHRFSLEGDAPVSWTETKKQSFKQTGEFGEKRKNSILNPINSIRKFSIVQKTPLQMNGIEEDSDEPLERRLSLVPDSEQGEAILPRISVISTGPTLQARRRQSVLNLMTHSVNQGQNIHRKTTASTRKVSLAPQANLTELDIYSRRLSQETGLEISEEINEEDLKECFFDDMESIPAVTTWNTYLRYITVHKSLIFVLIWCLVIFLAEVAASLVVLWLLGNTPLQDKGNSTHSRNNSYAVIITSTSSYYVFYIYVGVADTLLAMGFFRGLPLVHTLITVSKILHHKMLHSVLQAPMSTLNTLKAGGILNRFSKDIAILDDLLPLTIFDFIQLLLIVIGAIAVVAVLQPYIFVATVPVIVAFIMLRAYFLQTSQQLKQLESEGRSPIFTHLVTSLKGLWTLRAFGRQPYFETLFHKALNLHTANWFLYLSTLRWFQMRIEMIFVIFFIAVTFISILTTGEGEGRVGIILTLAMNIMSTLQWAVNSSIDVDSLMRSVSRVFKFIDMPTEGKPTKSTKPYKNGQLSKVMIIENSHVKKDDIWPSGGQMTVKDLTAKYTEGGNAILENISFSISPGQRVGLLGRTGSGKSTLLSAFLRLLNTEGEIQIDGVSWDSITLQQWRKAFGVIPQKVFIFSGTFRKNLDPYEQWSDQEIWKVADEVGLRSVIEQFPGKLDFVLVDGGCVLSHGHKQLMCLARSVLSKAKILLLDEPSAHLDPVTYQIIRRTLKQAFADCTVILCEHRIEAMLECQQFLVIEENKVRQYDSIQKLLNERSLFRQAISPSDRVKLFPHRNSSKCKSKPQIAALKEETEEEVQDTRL

SMILES | IC50
Cc1ccc(C2SCCn3c(-c4ccccc4)c4c(=O)n(C)c(=O)n(C)c4c32)o1 (single isomer, unassigned) [Example 1.2, 1,3-Dimethyl-10-(5-methylfuran-2-yl)-5-phenyl-7,8-dihydro-1H-pyrimido[4′,5′:3,4]pyrrolo[2,1-c][1,4]thiazine-2,4(3H,10H)-dione] | 0.79 µM
Cc1ccc([C@H]2CCCn3c(-c4ccccc4)c4c(=O)n(C)c(=O)n(C)c4c32)o1 [Example 6.4, (S)-1,3-Dimethyl-10-(5-methylfuran-2-yl)-5-phenyl-7,8,9,10-tetrahydropyrimido[4,5-a]indolizine-2,4(1H,3H)-dione] | > 30 µM
Cn1c(=O)c2c(-c3cccc(C#N)c3)n3c(c2n(C)c1=O)[C@H](c1nc(Cl)cs1)CCC3 [Example 13a, (R)-3-(10-(4-chlorothiazol-2-yl)-1,3-dimethyl-2,4-dioxo-1,2,3,4,7,8,9,10-octahydropyrimido[4,5-a]indolizin-5-yl)benzonitrile] | 0.07 µM
CCn1c(=O)c2c(-c3ccccc3)n3c(c2n(CC)c1=O)C(c1ccc(Cl)o1)SCC3 (single isomer, unassigned) [Example 4.2, 10-(5-Chlorofuran-2-yl)-1,3-diethyl-5-phenyl-7,8-dihydro-1H-pyrimido[4′,5′:3,4]pyrrolo[2,1-c][1,4]thiazine-2,4(3H,10H)-dione] | 1.67 µM
Cn1cc(-c2c3c(=O)n(C)c(=O)n(C)c3c3n2CCSC3c2ccc(Cl)o2)cn1 (racemic) [Example 15.8, 10-(5-Chlorofuran-2-yl)-1,3-dimethyl-5-(1-methyl-1H-pyrazol-4-yl)-7,8-dihydro-1H-pyrimido[4′,5′:3,4]pyrrolo[2,1-c][1,4]thiazine-2,4(3H,10H)-dione] | 3.93 µM
Cn1c(=O)c2c(-c3ccccc3)n3c(c2n(C)c1=O)C(c1cccc(C#N)c1)CCC3 (racemic) [Example 9.2, 3-(1,3-Dimethyl-2,4-dioxo-5-phenyl-1,2,3,4,7,8,9,10-octahydropyrimido[4,5-a]indolizin-10-yl)benzonitrile] | 9.3 µM
Cc1cccc(-c2c3c(=O)n(C)c(=O)n(C)c3c3n2CCCC3c2nc(C)cs2)c1 (single isomer, unassigned) [Example 8.2, 1,3-dimethyl-10-(4-methylthiazol-2-yl)-5-m-tolyl-7,8,9,10-tetrahydropyrimido[4,5-a]indolizine-2,4(1H,3H)-dione] | 0.29 µM
Cc1ccc(C2SCCn3c(-c4ccccc4)c4c(=O)n(C)c(=O)n(C)c4c32)o1 (single isomer, unassigned) [Example 1.3, 1,3-Dimethyl-10-(5-methylfuran-2-yl)-5-phenyl-7,8-dihydro-1H-pyrimido[4′,5′:3,4]pyrrolo[2,1-c][1,4]thiazine-2,4(3H,10H)-dione] | > 30 µM
Cc1coc(-c2c3c(=O)n(C)c(=O)n(C)c3c3n2CCSC3c2ccc(Cl)o2)n1 (racemic) [Example 15.10, 10-(5-Chlorofuran-2-yl)-1,3-dimethyl-5-(4-methyloxazol-2-yl)-7,8-dihydro-1H-pyrimido[4′,5′:3,4]pyrrolo[2,1-c][1,4]thiazine-2,4(3H,10H)-dione] | 1.18 µM
Cc1ccc(C2CCn3c(-c4ccccc4)c4c(=O)n(C)c(=O)n(C)c4c32)o1 (racemic) [Example 11.0, 1,3-Dimethyl-9-(5-methylfuran-2-yl)-5-phenyl-8,9-dihydro-1H-pyrimido[4,5-a]pyrrolizine-2,4(3H,7H)-dione] | 9.14 µM
Cn1cnc(-c2c3c(=O)n(C)c(=O)n(C)c3c3n2CCSC3c2ccc(Cl)o2)c1 (racemic) [Example 15.7, 10-(5-Chlorofuran-2-yl)-1,3-dimethyl-5-(1-methyl-1H-imidazol-4-yl)-7,8-dihydro-1H-pyrimido[4′,5′:3,4]pyrrolo[2,1-c][1,4]thiazine-2,4(3H,10H)-dione] | 5.5 µM
Cc1csc(C2CCNn3c(-c4cccc(Cl)c4)c4c(=O)n(C)c(=O)n(C)c4c32)n1 (racemic) [Example 10.2, 5-(3-Chlorophenyl)-1,3-dimethyl-10-(4-methylthiazol-2-yl)-7,8,9,10-tetrahydropyrimido[4′,5′:3,4]pyrrolo[1,2-b]pyridazine-2,4(1H,3H)-dione] | 0.7 µM

The next lines start with the values.

IC50 | SMILES
1.74 µM | Cc1ccc([C@@H]2CC[C@@H](Cn3nccn3)n3c(-c4ccccc4)c4c(=O)n(C)c(=O)n(C)c4c32)o1 (single isomer, unassigned) [Example 24]
1.45 µM | Cn1c(=O)c2c(-c3cccc(C#N)c3)n3c(c2n(C)c1=O)C(c1nc(Cl)cs1)CCCC3 (single isomer, unassigned) [Example 31, 3-(11-(4-chlorothiazol-2-yl)-1,3-dimethyl-2,4-dioxo-2,3,4,7,8,9,10,11-octahydro-1H-pyrimido[4′,5′:3,4]pyrrolo[1,2-a]azepin-5-yl)benzonitrile]
0.05 µM | Cn1c(=O)c2c(-c3cccc(F)c3)n3c(c2n(C)c1=O)[C@H](c1nc(Cl)cs1)C[C@@H](CO)C3 (single isomer, unassigned) [Example 23a, 10-(4-chlorothiazol-2-yl)-5-(3-fluorophenyl)-8-(hydroxymethyl)-1,3-dimethyl-7,8,9,10-tetrahydropyrimido[4,5-a]indolizine-2,4(1H,3H)-dione]
0.1 µM | Cn1c(=O)c2c(-c3cccc(C#N)c3)n3c(c2n(C)c1=O)[C@H](c1nc(Cl)cs1)C[C@@H](CO)C3 (single isomer, unassigned) [Example 23.1a, 3-(10-(4-chlorothiazol-2-yl)-8-(hydroxymethyl)-1,3-dimethyl-2,4-dioxo-1,2,3,4,7,8,9,10-octahydropyrimido[4,5-a]indolizin-5-yl)benzonitrile]
0.33 µM | Cn1c(=O)c2c(-c3ccccc3)n3c(c2n(C)c1=O)C(c1nc(Cl)cs1)C(C)(C)C3 (single isomer, unassigned) [Example 21a, 9-(4-chlorothiazol-2-yl)-1,3,8,8-tetramethyl-5-phenyl-8,9-dihydro-1H-pyrimido[4,5-a]pyrrolizine-2,4(3H,7H)-dione]
0.25 µM | Cc1csc(-c2c3c(=O)n(C)c(=O)n(C)c3c3n2C[C@@H](CN2CCCC2=O)S[C@@H]3c2ccc(Cl)o2)n1 (single isomer, unassigned) [Example 30.1a, 10-(5-chlorofuran-2-yl)-1,3-dimethyl-5-(4-methylthiazol-2-yl)-8-((2-oxopyrrolidin-1-yl)methyl)-7,8-dihydro-1H-pyrimido[4′,5′:3,4]pyrrolo[2,1-c][1,4]thiazine-2,4(3H,10H)-dione]
0.47 µM | Cn1ccc(-c2c3c(=O)n(C)c(=O)n(C)c3c3n2CCCC3c2nc(Cl)cs2)n1 (racemic) [Example 22, 10-(4-Chlorothiazol-2-yl)-1,3-dimethyl-5-(1-methyl-1H-pyrazol-3-yl)-7,8,9,10-tetrahydropyrimido[4,5-a]indolizine-2,4(1H,3H)-dione]
1.39 µM | Cc1csc(C2c3c4c(c(-c5cccc(C#N)c5)n3CC2(C)C)c(=O)n(C)c(=O)n4C)n1 (single isomer, unassigned) [Example 21.8, 3-(1,3,8,8-Tetramethyl-9-(4-methylthiazol-2-yl)-2,4-dioxo-2,3,4,7,8,9-hexahydro-1H-pyrimido[4,5-a]pyrrolizin-5-yl)benzonitrile]
0.15 µM | Cn1c(=O)c2c(-c3cccc(F)c3)n3c(c2n(C)c1=O)[C@H](c1nc(Cl)cs1)C[C@@H]3CO [Example 27a, (7R,9R)-9-(4-chlorothiazol-2-yl)-5-(3-fluorophenyl)-7-(hydroxymethyl)-1,3-dimethyl-8,9-dihydro-1H-pyrimido[4,5-a]pyrrolizine-2,4(3H,7H)-dione]
0.45 µM | CC(=O)NC[C@H]1Cn2c(-c3nc(C)cs3)c3c(=O)n(C)c(=O)n(C)c3c2[C@H](c2ccc(Cl)o2)S1 (single isomer, unassigned) [Example 26.3a, N-((10-(5-chlorofuran-2-yl)-1,3-dimethyl-5-(4-methylthiazol-2-yl)-2,4-dioxo-2,3,4,7,8,10-hexahydro-1H-pyrimido[4′,5′:3,4]pyrrolo[2,1-c][1,4]thiazin-8-yl)methyl)acetamide]
